According to publication PMC7738880, “Identification of novel CD44v6-binding peptides that block CD44v6 and deliver a pro-apoptotic peptide to tumors to inhibit tumor growth and metastasis in mice” (Theranostics, 2021):
Residues, ends and D or L forms follow the SMILES beside them.

Assays:
[1] = tested on: 4T1 cells; test: Transwell cell migration and invasion assays, 4T1; type: cell-based, mouse; details: HGF 25 ng/mL, 24 h
Method: Transwell chambers (24-wells) with 8 μm pores were obtained from Corning (Corning, NY). MDA-MB231 and 4T1 cells (1 × 10^6 cells) were harvested, resuspended in 200 μL of DMEM containing CD44v6-binding peptides (20 µM), and then seeded into the upper chamber of the transwell chambers. The lower chamber was filled with 600 μL of DMEM containing 25 ng/mL HGF. After 24 h of incubation, cells that migrated into the reverse side of the transwell membrane were fixed with methanol, stained with crystal violet, and then counted under a light microscope. An average of five visual fields was obtained. For invasion assays, the transwell membrane was pre-coated with 300 µg/mL of Matrigel (Corning). […]
phosphorylation in 4T1 cells. (C-D) Transwell migration (C) and invasion (D) assays of 4T1 cells pre-treated or not with 5 μg/mL NLN and NEW for 10 min and subsequently treated with 25 ng/mL HGF for 10 min, followed by incubation for 24 h. Scale bars = 20 μm. Graphs (right panels) represent the quantification of the cell numbers in ten randomly selected fields. Data are shown as the means ± S.E. of three independent experiment. **, P < 0.01; ***, P < 0.001; n.s, not significant compared with HGF by one-way ANOVA.

[2] = tested on: MDA-MB231 cells; test: Transwell cell migration and invasion assays, MDA-MB231; type: cell-based, human; details: peptide 20 µM, HGF 25 ng/mL, 24 h
Method: Transwell chambers (24-wells) with 8 μm pores were obtained from Corning (Corning, NY). MDA-MB231 and 4T1 cells (1 × 10^6 cells) were harvested, resuspended in 200 μL of DMEM containing CD44v6-binding peptides (20 µM), and then seeded into the upper chamber of the transwell chambers. The lower chamber was filled with 600 μL of DMEM containing 25 ng/mL HGF. After 24 h of incubation, cells that migrated into the reverse side of the transwell membrane were fixed with methanol, stained with crystal violet, and then counted under a light microscope. An average of five visual fields was obtained. For invasion assays, the transwell membrane was pre-coated with 300 µg/mL of Matrigel (Corning).

[3] = tested on: CD44v6-high cells (MDA-MB231, 4T1, Panc-1) versus CD44v6-low MCF7 cells; test: Immunofluorescence microscopy and flow cytometry of FITC-peptide cell binding; type: cell-based; details: FITC-labeled peptide 25 µM, 4 °C, 1 h
Method: Cells were seeded in each well of an 8-well chamber slide at a density of 1 × 10^5 cells per well, incubated overnight, and then treated with 1% BSA at room temperature for 1 h. Subsequently, the cells were incubated with FITC-conjugated peptides (25 µM) at 4 °C for 1 h, blocked with BSA, fixed, and incubated with an anti-human CD44v6 mouse monoclonal antibody (clone no. VFF-7, 1:100 dilution; Santa Cruz Biotechnology, Dallas, TX) or a rabbit anti-CD44v6 polyclonal antibody (1:100 dilution; Merck). The cells were then incubated with an Alexa Fluor 594-labeled goat anti-mouse IgG or goat anti-rabbit IgG secondary antibodies (Merck). After incubation, the cells were counterstained with 4ʹ,6-diamidino-2-phenylindole (DAPI, Sigma-Aldrich, St. Louis, MI), mounted with ProLong antifade reagent (Thermo Fischer Scientific), and observed under a confocal microscope (Zeiss, Jena, Germany).
Cells (1 × 10^5 cells) were harvested and suspended in culture medium containing 1% BSA for 1 h, followed by an incubation with FITC-labeled peptides (25 µM) at 4 °C for 1 h. After washing, the cells were analyzed using a FACSCalibur flow cytometer (BD, Franklin Lakes, NJ). […]

[4] = target: T1, recombinant human CD44-Fc protein (Homo sapiens, UniProt P16070); test: SPR analysis of peptide binding to CD44-Fc; details: biotin-conjugated peptide on streptavidin chip, CD44-Fc 0.125-2 µM
T1 construct: Fc; purchased R&D Systems
Method: The binding affinity (KD) of CD44v6-binding peptides to the CD44v6 protein was measured using an SPR instrument (Reichert Technologies, Depew, NY). A streptavidin chip was used as the immobilization substrate and exposed to biotin-labeled peptides (25 μΜ) at 5 μL/min for 50 min. The streptavidin only surface was used for the reference surface. All SPR signals were corrected by subtraction with the response of the reference surface. After washing, the chip was flowed with a solution of CD44v6-Fc or CD44-Fc protein (R&D Systems, Minneapolis, MN) in binding buffer (137 mM NaCl, 10 mM phosphate, 2.7 mM KCl pH 7.4, 62.5 µM BSA, and 0.005% Tween-20) at concentrations of 0.125, 0.25, 0.5, 1, and 2 μM at 10 μL/min for 3 min. Five concentrations (0.125, 0.25, 0.5, 1, and 2 µM) of CD44v6-Fc and CD44-Fc were used in a single-cycle dynamic SPR measurements. Resonance units were recorded and analyzed using Scrubber 2.0 software (BioLogic Software, Campbell, Australia). KD values were calculated by analyzing the steady-state binding data by fitting the curve of binding level against concentration with a 1:1 binding model (GraphPad Prism 7.0 software).

[5] = target: T2, recombinant human CD44v6-Fc protein (Homo sapiens, UniProt P16070); test: ELISA of peptide binding to recombinant proteins; details: 10 µM biotin-labeled peptide, 4 °C, 1 h
T2 sequence (P16070 386-428 limits assumed): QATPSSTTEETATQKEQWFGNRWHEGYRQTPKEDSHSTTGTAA
Method: Supplementary Information
Supplementary Materials and Methods […]
peroxidase-conjugated neutravidin (1:10,000 dilution; ThermoFisher Scientific, Waltham, MA) for 30 min at room temperature. Enzymatic activity was detected using a 3,3ʹ,5,5ʹ-tetramethylbenzidine substrate (ThermoFisher Scientific), and the reaction was stopped using 2 M […]
sulfuric acid. […]
Enzyme-linked immunosorbent assay (ELISA) of peptide binding to recombinant proteins ELISA plates were coated overnight with 100 μL of recombinant human CD44v6-Fc and CD44-Fc proteins (R&D Systems, Minneapolis, MN) at a concentration of 1 μg/mL in Tris-buffered saline with 0.05% Tween-20. BSA was used as a control. After coating, plates were incubated with 10 µM biotin-labeled CD44v6-binding peptides at 4 °C for 1 h. After washing, the cells were incubated with horseradish peroxidase-conjugated neutravidin (1:10,000 dilution; ThermoFisher Scientific) for 30 min at room temperature. Detection of enzymatic activity and measurement of absorbance was performed as described above. Relative binding was calculated based on the absorbance, in which the absorbance of BSA was set to 1.

T1 sequence (P16070 21-361 isoform P16070-12 limits assumed): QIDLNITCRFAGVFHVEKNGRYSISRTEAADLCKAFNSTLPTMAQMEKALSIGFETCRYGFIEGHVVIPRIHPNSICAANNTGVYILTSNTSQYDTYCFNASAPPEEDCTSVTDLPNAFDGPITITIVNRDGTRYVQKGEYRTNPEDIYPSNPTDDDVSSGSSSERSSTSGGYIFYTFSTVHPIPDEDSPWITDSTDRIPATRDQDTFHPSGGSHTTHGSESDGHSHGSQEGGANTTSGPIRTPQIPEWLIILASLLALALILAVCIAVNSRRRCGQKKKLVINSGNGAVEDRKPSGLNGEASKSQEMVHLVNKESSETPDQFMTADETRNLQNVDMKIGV

Compound: CC[C@H](C)[C@H](NC(=O)[C@@H](NC(=O)[C@H](CC(N)=O)NC(=O)[C@H](CC(C)C)NC(=O)[C@H](CC(N)=O)NC(=O)[C@@H](N)CS)[C@@H](C)O)C(=O)N[C@@H](CC(=O)O)C(=O)N[C@H](C(=O)N[C@@H](CS)C(=O)O)[C@@H](C)O [NLN] (H-CNLNTIDTC-OH; N-terminus and C-terminus assumed)
- HGF-induced cell migration and invasion, 4T1 [1]: inhibited
- HGF-induced cell migration and invasion, MDA-MB231 [2]: inhibited
- cellular binding, CD44v6-high versus CD44v6-low cells [3]: bound selectively to CD44v6-high cells
- binding to the CD44 protein [4]: did not bind
- binding to recombinant CD44v6-Fc protein coated on plates compared with CD44-Fc and albumin [5]: preferentially bound

Compound: CC(C)C[C@H](NC(=O)[C@H](CCC(N)=O)NC(=O)[C@H](Cc1c[nH]c2ccccc12)NC(=O)[C@H](CCC(=O)O)NC(=O)[C@H](CC(N)=O)NC(=O)[C@@H](N)CS)C(=O)N[C@@H](CCCCN)C(=O)N[C@@H](CO)C(=O)N[C@@H](CS)C(=O)O [NEW] (H-CNEWQLKSC-OH; N-terminus and C-terminus assumed)
- HGF-induced cell migration and invasion, 4T1 [1]: inhibited
- HGF-induced cell migration and invasion, MDA-MB231 [2]: inhibited
- cellular binding, CD44v6-high versus CD44v6-low cells [3]: bound selectively to CD44v6-high cells
- binding to the CD44 protein [4]: did not bind
- binding to recombinant CD44v6-Fc protein coated on plates compared with CD44-Fc and albumin [5]: preferentially bound
